Results as given in publication PMC9090415, “Discovery of small molecule inhibitors of Plasmodium falciparum apicoplast DNA polymerase” (Journal of Enzyme Inhibition and Medicinal Chemistry, 2022).

Target: P. falciparum apicoplast DNA polymerase (Pf-apPOL) (Plasmodium falciparum, UniProt Q8ILY1)
Assay: Fluorescence-based high-throughput DNA polymerase assay (molecular beacon), primary screen and dose-response
Assay type: biochemical
Conditions: for DNA Pol: 90 min, 10 µM; for % inhibition apPOL 180' 2.5 / % inhibition apPOL 180' 5 / % inhibition apPOL 180' 10 / % inhibition apPOL 180' 20 / % inhibition apPOL 180' 40 / % inhibition apPOL 180' 80: read at 180'
Method in brief: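 Single-point screening used 10 µM compound with 20 nM polymerase, 20 nM hairpin substrate and 6 µM dNTPs for 90 min at 25 °C. Confirmatory titrations (2.5–80 µM) followed fluorescence at three times, and IC50 was derived from a fit including a cooperativity term n.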

[1] = "DNA Pol" of the 186 hits list (screen value)
[2] = first dose-response, concentration 40

Sequence of P. falciparum apicoplast DNA polymerase (Pf-apPOL) (Q8ILY1 entry or part of it): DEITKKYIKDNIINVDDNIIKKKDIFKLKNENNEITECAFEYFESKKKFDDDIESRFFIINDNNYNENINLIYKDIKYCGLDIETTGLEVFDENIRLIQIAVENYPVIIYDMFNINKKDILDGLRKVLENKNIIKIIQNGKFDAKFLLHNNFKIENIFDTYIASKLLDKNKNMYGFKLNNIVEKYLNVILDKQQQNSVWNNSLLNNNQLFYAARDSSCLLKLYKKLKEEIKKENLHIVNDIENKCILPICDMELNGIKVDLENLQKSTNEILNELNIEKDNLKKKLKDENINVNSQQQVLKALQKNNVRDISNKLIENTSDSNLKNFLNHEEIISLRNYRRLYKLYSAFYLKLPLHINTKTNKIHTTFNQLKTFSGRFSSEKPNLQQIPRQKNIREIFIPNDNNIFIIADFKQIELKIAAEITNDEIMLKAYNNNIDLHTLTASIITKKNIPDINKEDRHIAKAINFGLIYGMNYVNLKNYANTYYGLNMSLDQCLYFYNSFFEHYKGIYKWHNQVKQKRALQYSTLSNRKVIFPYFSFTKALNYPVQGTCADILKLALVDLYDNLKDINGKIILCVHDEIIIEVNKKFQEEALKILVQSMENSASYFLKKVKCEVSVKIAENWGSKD

Structure (SMILES): O=C(Cc1cc(=O)[nH]c(SCc2ccccc2)n1)Nc1ccc2c(c1)OCO2 [Molecule 46, O=C(Cc1cc(=O)[nH]c(n1)SCc1ccccc1)Nc1ccc2c(c1)OCO2]
- DNA Pol [1]: 35
- % inhibition Apo pol 10' (DRC-1, concentration 2.5): -0.9773%
- % inhibition Apo pol 10' (DRC-1, concentration 5): 2.643%
- % inhibition Apo pol 10' (DRC-1, concentration 10): 32.2663%
- % inhibition Apo pol 10' (DRC-1, concentration 20): 58.1636%
- % inhibition Apo pol 10' (DRC-1, concentration 40): 83.7049%
- % inhibition Apo pol 10' (DRC-1, concentration 80): 86.7652%
- % inhibition Apol 90' (DRC-1, concentration 2.5): -4.834%
- % inhibition Apol 90' (DRC-1, concentration 5): -3.621%
- % inhibition Apol 90' (DRC-1, concentration 10): 17.8668%
- % inhibition Apol 90' (DRC-1, concentration 20): 43.05%
- % inhibition Apol 90' (DRC-1, concentration 40): 73.6983%
- % inhibition Apol 90' (DRC-1, concentration 80): 82.3218%
- % inhibition apPOL 180' (DRC-1, concentration 2.5): -11.1217%
- % inhibition apPOL 180' (DRC-1, concentration 5): -9.027%
- % inhibition apPOL 180' (DRC-1, concentration 10): 5.286%
- % inhibition apPOL 180' (DRC-1, concentration 20): 25.3173%
- % inhibition apPOL 180' (DRC-1, concentration 40): 61.8193%
- % inhibition apPOL 180' (DRC-1, concentration 80): 77.2818%
- % inhibition Apo pol 5' (DRC-2, concentration 2.5): -0.743%
- % inhibition Apo pol 5' (DRC-2, concentration 5): -0.197%
- % inhibition Apo pol 5' (DRC-2, concentration 10): 23%
- % inhibition Apo pol 5' (DRC-2, concentration 20): 29%
- % inhibition Apo pol 5' (DRC-2, concentration 40): 27%
- % inhibition Apo pol 5' (DRC-2, concentration 80): 20%
- % inhibition Apol 40' (DRC-2, concentration 2.5): -1%
- % inhibition Apol 40' (DRC-2, concentration 5): 0.92%
- % inhibition Apol 40' (DRC-2, concentration 10): 30%
- % inhibition Apol 40' (DRC-2, concentration 20): 47%
- % inhibition Apol 40' (DRC-2, concentration 40): 55%
- % inhibition Apol 40' (DRC-2, concentration 80): 53%
- % inhibition ApPOL 90' (DRC-2, concentration 2.5): -1%
- % inhibition ApPOL 90' (DRC-2, concentration 5): -0.186%
- % inhibition ApPOL 90' (DRC-2, concentration 10): 27%
- % inhibition ApPOL 90' (DRC-2, concentration 20): 49%
- % inhibition ApPOL 90' (DRC-2, concentration 40): 60%
- % inhibition ApPOL 90' (DRC-2, concentration 80): 61%
- % inhibition apPOL 180' (DRC-2, concentration 2.5): -5.33%
- % inhibition apPOL 180' (DRC-2, concentration 5): -9%
- % inhibition apPOL 180' (DRC-2, concentration 10): 17%
- % inhibition apPOL 180' (DRC-2, concentration 20): 41%
- % inhibition apPOL 180' (DRC-2, concentration 40): 62%
- % inhibition apPOL 180' (DRC-2, concentration 80): 67%
- DNA Pol (primary screen value, DNA Pol): 35

Structure (SMILES): Cn1nc(-c2nnc(-c3ccccc3F)o2)c2c1CCN(C(=O)c1ccccc1Cl)C2 [Molecule 34, Cn1nc(c2c1CCN(C2)C(=O)c1ccccc1Cl)c1nnc(o1)c1ccccc1F]
- DNA Pol (186 hits, DNA Pol (screen value), unit not given): 48
- DNA Pol ('DNA Pol' (screen value), unit not given): 48
- % inhibition Apo pol 10' 2.5 (DRC-1, read at 10', concentration 2.5): 33%
- % inhibition Apo pol 10' 5 (DRC-1, read at 10', concentration 5): 44%
- % inhibition Apo pol 10' 10 (DRC-1, read at 10', concentration 10): 52%
- % inhibition Apo pol 10' 20 (DRC-1, read at 10', concentration 20): 58%
- % inhibition Apo pol 10' 40 (DRC-1, read at 10', concentration 40): 59%
- % inhibition Apo pol 10' 80 (DRC-1, read at 10', concentration 80): 63%
- % inhibition Apol 90' 2.5 (DRC-1, read at 90', concentration 2.5): 23%
- % inhibition Apol 90' 5 (DRC-1, read at 90', concentration 5): 35%
- % inhibition Apol 90' 10 (DRC-1, read at 90', concentration 10): 46%
- % inhibition Apol 90' 20 (DRC-1, read at 90', concentration 20): 54%
- % inhibition Apol 90' 40 (DRC-1, read at 90', concentration 40): 59%
- % inhibition Apol 90' 80 (DRC-1, read at 90', concentration 80): 65%
- % inhibition apPOL 180' 2.5 (DRC-1, concentration 2.5): 17%
- % inhibition apPOL 180' 5 (DRC-1, concentration 5): 28%
- % inhibition apPOL 180' 10 (DRC-1, concentration 10): 41%
- % inhibition apPOL 180' 20 (DRC-1, concentration 20): 50%
- % inhibition apPOL 180' 40 (DRC-1, concentration 40): 58%
- % inhibition apPOL 180' 80 (DRC-1, concentration 80): 64%
- % inhibition Apo pol 5' (DRC-2, concentration 2.5): 20%
- % inhibition Apo pol 5' (DRC-2, concentration 5): 20%
- % inhibition Apo pol 5' (DRC-2, concentration 80): 39%
- % inhibition Apol 40' (DRC-2, concentration 2.5): 22%
- % inhibition Apol 40' (DRC-2, concentration 5): 27%
- % inhibition Apol 40' (DRC-2, concentration 40): 49%
- % inhibition Apol 40' (DRC-2, concentration 80): 52%
- % inhibition ApPOL 90' (DRC-2, concentration 2.5): 22%
- % inhibition ApPOL 90' (DRC-2, concentration 5): 27%
- % inhibition ApPOL 90' (DRC-2, concentration 40): 52%
- % inhibition apPOL 180' (DRC-2, concentration 20): 39%
- % inhibition apPOL 180' (DRC-2, concentration 40): 49%
- % inhibition apPOL 180' (DRC-2, concentration 80): 52%
- % inhibition Apo pol 5' 2.5 (DRC-2, read at 5', concentration 2.5): 20%
- % inhibition Apo pol 5' 5 (DRC-2, read at 5', concentration 5): 20%
- % inhibition Apo pol 5' 10 (DRC-2, read at 5', concentration 10): 24%
- % inhibition Apo pol 5' 20 (DRC-2, read at 5', concentration 20): 29%
- % inhibition Apo pol 5' 40 (DRC-2, read at 5', concentration 40): 38%
- % inhibition Apo pol 5' 80 (DRC-2, read at 5', concentration 80): 39%
- % inhibition Apol 40' 2.5 (DRC-2, read at 40', concentration 2.5): 22%
- % inhibition Apol 40' 5 (DRC-2, read at 40', concentration 5): 27%
- % inhibition Apol 40' 10 (DRC-2, read at 40', concentration 10): 34%
- % inhibition Apol 40' 20 (DRC-2, read at 40', concentration 20): 40%
- % inhibition Apol 40' 40 (DRC-2, read at 40', concentration 40): 49%
- % inhibition Apol 40' 80 (DRC-2, read at 40', concentration 80): 52%
- % inhibition ApPOL 90' 2.5 (DRC-2, read at 90', concentration 2.5): 22%
- % inhibition ApPOL 90' 5 (DRC-2, read at 90', concentration 5): 27%
- % inhibition ApPOL 90' 10 (DRC-2, read at 90', concentration 10): 36%
- % inhibition ApPOL 90' 20 (DRC-2, read at 90', concentration 20): 43%
- % inhibition ApPOL 90' 40 (DRC-2, read at 90', concentration 40): 52%
- % inhibition ApPOL 90' 80 (DRC-2, read at 90', concentration 80): 55%
- % inhibition apPOL 180' 2.5 (DRC-2, concentration 2.5): 15%
- % inhibition apPOL 180' 5 (DRC-2, concentration 5): 21%
- % inhibition apPOL 180' 10 (DRC-2, concentration 10): 31%
- % inhibition apPOL 180' 20 (DRC-2, concentration 20): 39%
- % inhibition apPOL 180' 40 (DRC-2, concentration 40): 49%
- % inhibition apPOL 180' 80 (DRC-2, concentration 80): 52%
- % inhibition Apo pol 10' (first dose-response, concentration 10): 52%
- % inhibition Apo pol 10' (first dose-response, concentration 20): 58%
- % inhibition Apo pol 10' [2]: 59%
- % inhibition Apol 90' [2]: 59%
- % inhibition apPOL 180' [2]: 58%

Structure (SMILES): Cc1ccc(NC(=O)C2CCN(C(=O)c3cc4ccsc4[nH]3)CC2)c(Br)c1 [Molecule 14, O=C(C1CCN(CC1)C(=O)c1cc2c([nH]1)scc2)Nc1ccc(cc1Br)C]
- DNA Pol [1]: 67
- % inhibition Apo pol 10' (DRC-1, concentration 2.5): 11%
- % inhibition Apo pol 10' (DRC-1, concentration 5): 36%
- % inhibition Apo pol 10' (DRC-1, concentration 10): 68%
- % inhibition Apo pol 10' (DRC-1, concentration 20): 88%
- % inhibition Apo pol 10' (DRC-1, concentration 40): 87%
- % inhibition Apo pol 10' (DRC-1, concentration 80): 89%
- % inhibition Apol 90' (DRC-1, concentration 2.5): 6%
- % inhibition Apol 90' (DRC-1, concentration 5): 22%
- % inhibition Apol 90' (DRC-1, concentration 10): 48%
- % inhibition Apol 90' (DRC-1, concentration 20): 76%
- % inhibition Apol 90' (DRC-1, concentration 40): 77%
- % inhibition Apol 90' (DRC-1, concentration 80): 84%
- % inhibition apPOL 180' (DRC-1, concentration 2.5): 5%
- % inhibition apPOL 180' (DRC-1, concentration 5): 12%
- % inhibition apPOL 180' (DRC-1, concentration 10): 30%
- % inhibition apPOL 180' (DRC-1, concentration 20): 61%
- % inhibition apPOL 180' (DRC-1, concentration 40): 63%
- % inhibition apPOL 180' (DRC-1, concentration 80): 75%
- % inhibition Apo pol 5' (DRC-2, concentration 2.5): 11%
- % inhibition Apo pol 5' (DRC-2, concentration 5): 22%
- % inhibition Apo pol 5' (DRC-2, concentration 10): 43%
- % inhibition Apo pol 5' (DRC-2, concentration 20): 50%
- % inhibition Apo pol 5' (DRC-2, concentration 40): 54%
- % inhibition Apo pol 5' (DRC-2, concentration 80): 48%
- % inhibition Apol 40' (DRC-2, concentration 2.5): 9%
- % inhibition Apol 40' (DRC-2, concentration 5): 22%
- % inhibition Apol 40' (DRC-2, concentration 10): 49%
- % inhibition Apol 40' (DRC-2, concentration 20): 62%
- % inhibition Apol 40' (DRC-2, concentration 40): 68%
- % inhibition Apol 40' (DRC-2, concentration 80): 67%
- % inhibition ApPOL 90' (DRC-2, concentration 2.5): 8.49%
- % inhibition ApPOL 90' (DRC-2, concentration 5): 18%
- % inhibition ApPOL 90' (DRC-2, concentration 10): 45%
- % inhibition ApPOL 90' (DRC-2, concentration 20): 61%
- % inhibition ApPOL 90' (DRC-2, concentration 40): 68%
- % inhibition ApPOL 90' (DRC-2, concentration 80): 70%
- % inhibition apPOL 180' (DRC-2, concentration 2.5): 2.63%
- % inhibition apPOL 180' (DRC-2, concentration 5): 12%
- % inhibition apPOL 180' (DRC-2, concentration 10): 34%
- % inhibition apPOL 180' (DRC-2, concentration 20): 52%
- % inhibition apPOL 180' (DRC-2, concentration 40): 64%
- % inhibition apPOL 180' (DRC-2, concentration 80): 69%
- % inhibition Apo pol 10' (first DRC, concentration 2.5): 11%
- % inhibition Apo pol 10' (first DRC, concentration 10): 68%
- % inhibition Apol 90' (first DRC, concentration 5): 22%
- % inhibition Apol 90' (first DRC, concentration 10): 48%
- % inhibition apPOL 180' (first DRC, concentration 5): 12%
- % inhibition apPOL 180' (first DRC, concentration 20): 61%
- DNA Pol (primary screen value, DNA Pol): 67
